Reference: patent US20220071996A1, “ORAL FORMULATIONS OF BRANAPLAM” (NOVARTIS AG, priority 2018, published 2022)
Values after ≈ are worked out from the molar mass of the structure shown. Read-outs that look alike come from different tables or passages of the source.

How the values were obtained:
Assay type in all cases: physicochemical
[1] = measured pKas of branaplam; conditions: acid
[2] = measured log P of branaplam
[3] = pH-dependent stability and compatibility with preservatives
[4] = phase solubility of branaplam in 2-hydroxypropyl-beta-cyclodextrin solutions; conditions: room temperature
[5] = solubility of branaplam in selected excipients; conditions: pH 4, aqueous with cosolvent or surfactant or cyclodextrin, thermodynamic from solid
Protocol: Solubility of branaplam was evaluated in excipients, other than cyclodextrin, such as Cremophor RH40, Tween 80, PG, PEG300, and glycerol. These excipients and concentrations were selected as they are suitable for paediatric formulations. None of the tested excipients was able to support development of a formulation comprising branaplam at a concentration high enough (i.e. about 2 mg/ml or higher) to keep the dose volume in a suitable range (Table 6).
Solubility of branaplam was evaluated in excipients, other than cyclodextrin, such as Cremophor RH40, Tween 80, PG, PEG300, and glycerol. These excipients and concentrations were selected as they are suitable for paediatric formulations. None of the tested excipients was able to support development of a formulation comprising branaplam at a concentration high enough (i.e. about 2 mg/ml or higher) to keep the dose volume in a suitable range (Table 5a).
Solubility of branaplam was measured as follows: stock solutions for the excipients at target concentrations were prepared using milli-Q water and adjusted using pH 4.0 buffer. […] Suspensions were stirred for 24 hours (using a magnetic stirrer) ensuring sufficient swirling and monitoring the temperature. The suspensions were filtered through 0.45 μm nominal pore size filter (e.g. using a PES syringe), and the concentration of branaplam in the filtrate was measured using HPLC (high performance liquid chromatography). The measurements were performed in duplicate and average of the values are reported.

With `CC1(C)CC(Oc2ccc(-c3ccc(-c4cn[nH]c4)cc3O)nn2)CC(C)(C)N1` [branaplam, 5-(1H-pyrazol-4-yl)-2-(6-((2,2,6,6-tetramethylpiperidin-4-yl)oxy)pyridazin-3-yl)phenol] the pKa [1] was 11.5, the logP [2] was 2.6 and the pH-dependent stability [3] was “poor stability under pH 4”. For the same compound, the “compatibility with potassium sorbate” value ([3]; preservative potassium sorbate) was “incompatibility with potassium sorbate”, the “branaplam dissolved using 17.5% HP-b-CD” value [4] was “about 10 mg/mL” and the solubility at 24 h ([5]; 2 °C, in Cremophor RH 40 15.0% (w/v), pH 4.0 buffer, 2-8° C., read-out: Solubility (mg/mL) 2-8° C.) was 1.19 mg/mL (≈ 3020 µM). It also gave a solubility at 24 h ([5]; 25 °C, in Cremophor RH 40 15.0% (w/v), pH 4.0 buffer, RT, read-out: Solubility (mg/mL) RT) of 1.32 mg/mL (≈ 3350 µM), a solubility at 24 h ([5]; Cremophor RH 40 1.0% (w/v) aqueous solution in pH 4.0 buffer, 2 °C, in Cremophor RH 40 1.0% (w/v), pH 4.0 buffer, 2-8° C., read-out: Solubility (mg/mL) 2-8° C.) of 0.17 mg/mL (≈ 432 µM) and a solubility at 24 h ([5]; Cremophor RH 40 1.0% (w/v) aqueous solution in pH 4.0 buffer, 25 °C, in Cremophor RH 40 1.0% (w/v), pH 4.0 buffer, RT, read-out: Solubility (mg/mL) RT) of 0.28 mg/mL (≈ 712 µM). For the same compound, the solubility at 24 h ([5]; Cremophor RH 40 3.5% (w/v) aqueous solution in pH 4.0 buffer, 2 °C, in Cremophor RH 40 3.5% (w/v), pH 4.0 buffer, 2-8° C., read-out: Solubility (mg/mL) 2-8° C.) was 0.44 mg/mL (≈ 1120 µM), the solubility at 24 h ([5]; Cremophor RH 40 3.5% (w/v) aqueous solution in pH 4.0 buffer, 25 °C, in Cremophor RH 40 3.5% (w/v), pH 4.0 buffer, RT, read-out: Solubility (mg/mL) RT) was 0.53 mg/mL (≈ 1350 µM) and the solubility at 24 h ([5]; Cremophor RH 40 7.0% (w/v) aqueous solution in pH 4.0 buffer, 2 °C, in Cremophor RH 40 7.0% (w/v), pH 4.0 buffer, 2-8° C., read-out: Solubility (mg/mL) 2-8° C.) was 0.71 mg/mL (≈ 1800 µM). It also gave a solubility at 24 h ([5]; Cremophor RH 40 7.0% (w/v) aqueous solution in pH 4.0 buffer, 25 °C, in Cremophor RH 40 7.0% (w/v), pH 4.0 buffer, RT, read-out: Solubility (mg/mL) RT) of 0.84 mg/mL (≈ 2130 µM), a solubility at 24 h ([5]; aqueous excipient solution, 2 °C, in Glycerol 5.0% (w/w), 2-8° C., read-out: Solubility (mg/mL) 2-8° C.) of 0.2 mg/mL (≈ 508 µM) and a solubility at 24 h ([5]; aqueous excipient solution, 2 °C, in Glycerol 10.0% (w/w), 2-8° C., read-out: Solubility (mg/mL) 2-8° C.) of 0.19 mg/mL (≈ 483 µM). For the same compound, the solubility at 24 h ([5]; aqueous excipient solution, 2 °C, in PEG 300 5.0% (w/w), 2-8° C., read-out: Solubility (mg/mL) 2-8° C.) was 0.27 mg/mL (≈ 686 µM), the solubility at 24 h ([5]; aqueous excipient solution, 2 °C, in PEG 300 10.0% (w/w), 2-8° C., read-out: Solubility (mg/mL) 2-8° C.) was 0.34 mg/mL (≈ 864 µM) and the solubility at 24 h ([5]; aqueous excipient solution, 2 °C, in PEG 300 25.0% (w/w), 2-8° C., read-out: Solubility (mg/mL) 2-8° C.) was 0.87 mg/mL (≈ 2210 µM). It also gave a solubility at 24 h ([5]; aqueous excipient solution, 2 °C, in PEG 400 5.0% (w/w), 2-8° C., read-out: Solubility (mg/mL) 2-8° C.) of 0.21 mg/mL (≈ 534 µM), a solubility at 24 h ([5]; aqueous excipient solution, 2 °C, in PEG 400 10.0% (w/w), 2-8° C., read-out: Solubility (mg/mL) 2-8° C.) of 0.45 mg/mL (≈ 1140 µM) and a solubility at 24 h ([5]; aqueous excipient solution, 2 °C, in PEG 400 25.0% (w/w), 2-8° C., read-out: Solubility (mg/mL) 2-8° C.) of 0.93 mg/mL (≈ 2360 µM). It also gave a solubility at 24 h ([5]; aqueous excipient solution, 2 °C, in Propylene glycol 5.0% (w/w), 2-8° C., read-out: Solubility (mg/mL) 2-8° C.) of 0.16 mg/mL (≈ 407 µM), a solubility at 24 h ([5]; aqueous excipient solution, 2 °C, in Propylene glycol 10.0% (w/w), 2-8° C., read-out: Solubility (mg/mL) 2-8° C.) of 0.18 mg/mL (≈ 457 µM) and a solubility at 24 h ([5]; aqueous excipient solution, 2 °C, in Propylene glycol 25.0% (w/w), 2-8° C., read-out: Solubility (mg/mL) 2-8° C.) of 0.42 mg/mL (≈ 1070 µM). The solubility at 24 h ([5]; aqueous excipient solution, 2 °C, in Tween 80 0.5% (w/w), 2-8° C., read-out: Solubility (mg/mL) 2-8° C.) was 0.16 mg/mL (≈ 407 µM), the solubility at 24 h ([5]; aqueous excipient solution, 2 °C, in Tween 80 0.8% (w/w), 2-8° C., read-out: Solubility (mg/mL) 2-8° C.) was 0.22 mg/mL (≈ 559 µM) and the solubility at 24 h ([5]; aqueous excipient solution, 2 °C, in Tween 80 1.5% (w/w), 2-8° C., read-out: Solubility (mg/mL) 2-8° C.) was 0.29 mg/mL (≈ 737 µM). It also gave a solubility at 24 h ([5]; aqueous excipient solution, 2 °C, in Tween 80 5.0% (w/w), 2-8° C., read-out: Solubility (mg/mL) 2-8° C.) of 0.73 mg/mL (≈ 1860 µM), a solubility at 24 h ([5]; aqueous excipient solution, 25 °C, in Glycerol 5.0% (w/w), RT, read-out: Solubility (mg/mL) RT) of 0.18 mg/mL (≈ 457 µM) and a solubility at 24 h ([5]; aqueous excipient solution, 25 °C, in Glycerol 10.0% (w/w), RT, read-out: Solubility (mg/mL) RT) of 0.22 mg/mL (≈ 559 µM). For the same compound, the solubility at 24 h ([5]; aqueous excipient solution, 25 °C, in PEG 300 5.0% (w/w), RT, read-out: Solubility (mg/mL) RT) was 0.39 mg/mL (≈ 991 µM), the solubility at 24 h ([5]; aqueous excipient solution, 25 °C, in PEG 300 10.0% (w/w), RT, read-out: Solubility (mg/mL) RT) was 0.64 mg/mL (≈ 1630 µM) and the solubility at 24 h ([5]; aqueous excipient solution, 25 °C, in PEG 300 25.0% (w/w), RT, read-out: Solubility (mg/mL) RT) was 1.61 mg/mL (≈ 4090 µM). It also gave a solubility at 24 h ([5]; aqueous excipient solution, 25 °C, in PEG 400 5.0% (w/w), RT, read-out: Solubility (mg/mL) RT) of 0.39 mg/mL (≈ 991 µM), a solubility at 24 h ([5]; aqueous excipient solution, 25 °C, in PEG 400 10.0% (w/w), RT, read-out: Solubility (mg/mL) RT) of 0.63 mg/mL (≈ 1600 µM) and a solubility at 24 h ([5]; aqueous excipient solution, 25 °C, in PEG 400 25.0% (w/w), RT, read-out: Solubility (mg/mL) RT) of 1.47 mg/mL (≈ 3740 µM). For the same compound, the solubility at 24 h ([5]; aqueous excipient solution, 25 °C, in Propylene glycol 5.0% (w/w), RT, read-out: Solubility (mg/mL) RT) was 0.27 mg/mL (≈ 686 µM), the solubility at 24 h ([5]; aqueous excipient solution, 25 °C, in Propylene glycol 10.0% (w/w), RT, read-out: Solubility (mg/mL) RT) was 0.37 mg/mL (≈ 940 µM) and the solubility at 24 h ([5]; aqueous excipient solution, 25 °C, in Propylene glycol 25.0% (w/w), RT, read-out: Solubility (mg/mL) RT) was 0.94 mg/mL (≈ 2390 µM). For the same compound, the solubility at 24 h ([5]; aqueous excipient solution, 25 °C, in Tween 80 0.5% (w/w), RT, read-out: Solubility (mg/mL) RT) was 0.25 mg/mL (≈ 635 µM), the solubility at 24 h ([5]; aqueous excipient solution, 25 °C, in Tween 80 0.8% (w/w), RT, read-out: Solubility (mg/mL) RT) was 0.28 mg/mL (≈ 712 µM) and the solubility at 24 h ([5]; aqueous excipient solution, 25 °C, in Tween 80 1.5% (w/w), RT, read-out: Solubility (mg/mL) RT) was 0.41 mg/mL (≈ 1040 µM).
